The values below come from patent US9096518B2, “Substituted hydroxamic acids and uses thereof” (Millennium Pharmaceuticals, Inc., priority 2009, dated 2015).

The target of the assay is T1, purified human HDAC6 (Homo sapiens, UniProt Q9UBN7).
T1 construct: purchased BPS Bioscience 5006
T1 sequence (Q9UBN7 1-1215): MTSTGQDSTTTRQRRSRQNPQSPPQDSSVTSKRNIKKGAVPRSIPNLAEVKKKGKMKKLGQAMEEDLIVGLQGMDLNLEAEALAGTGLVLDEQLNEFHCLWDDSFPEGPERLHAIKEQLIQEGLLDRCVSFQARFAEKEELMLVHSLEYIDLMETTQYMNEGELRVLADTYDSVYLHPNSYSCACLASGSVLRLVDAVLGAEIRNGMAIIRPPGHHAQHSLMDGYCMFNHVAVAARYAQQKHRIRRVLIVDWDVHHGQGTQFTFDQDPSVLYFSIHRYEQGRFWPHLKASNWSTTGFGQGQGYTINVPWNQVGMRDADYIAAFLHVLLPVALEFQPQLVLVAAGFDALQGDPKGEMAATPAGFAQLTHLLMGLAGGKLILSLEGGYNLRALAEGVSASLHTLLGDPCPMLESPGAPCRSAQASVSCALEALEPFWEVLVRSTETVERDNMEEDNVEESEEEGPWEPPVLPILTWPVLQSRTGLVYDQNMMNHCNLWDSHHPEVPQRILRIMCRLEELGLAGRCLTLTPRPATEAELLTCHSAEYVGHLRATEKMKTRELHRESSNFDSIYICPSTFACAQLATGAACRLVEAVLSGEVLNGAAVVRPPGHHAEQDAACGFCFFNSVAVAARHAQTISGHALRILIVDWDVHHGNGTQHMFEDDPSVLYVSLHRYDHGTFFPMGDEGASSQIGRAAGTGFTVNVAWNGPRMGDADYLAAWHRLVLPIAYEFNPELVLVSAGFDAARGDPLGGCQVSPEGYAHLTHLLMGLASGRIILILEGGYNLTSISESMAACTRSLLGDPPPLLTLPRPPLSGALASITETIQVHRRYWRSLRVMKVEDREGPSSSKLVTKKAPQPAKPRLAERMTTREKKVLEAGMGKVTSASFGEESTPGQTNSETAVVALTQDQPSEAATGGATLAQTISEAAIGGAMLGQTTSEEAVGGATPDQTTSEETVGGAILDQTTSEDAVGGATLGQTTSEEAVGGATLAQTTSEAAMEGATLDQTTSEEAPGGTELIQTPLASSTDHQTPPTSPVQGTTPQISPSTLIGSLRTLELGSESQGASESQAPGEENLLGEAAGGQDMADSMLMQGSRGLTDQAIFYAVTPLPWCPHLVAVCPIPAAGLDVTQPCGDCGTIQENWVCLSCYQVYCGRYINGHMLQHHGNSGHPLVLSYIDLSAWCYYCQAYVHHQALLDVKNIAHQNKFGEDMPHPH
Briefly: HDAC6 Enzyme Assay. The assay is classed as biochemical. Here is the method:
To measure the inhibition of HDAC6 activity, purified human HDAC6 (BPS Bioscience; Cat. No. 5006) is incubated with substrate Ac-Arg-Gly-Lys(Ac)-AMC peptide (Bachem Biosciences; Cat. No. I-1925) for 1 hour at 30° C. in the presence of test compounds or vehicle DMSO control. The reaction is stopped with the HDAC inhibitor trichostatin A (Sigma; Cat. No. T8552) and the amount of Arg-Gly-Lys-AMC generated is quantitated by digestion with trypsin (Sigma; Cat. No. T1426) and subsequent measurement of the amount of AMC released using a fluorescent plate reader (Pherastar; BMG Technologies) set at Ex 340 nm and Em 460 nm. Concentration response curves are generated by calculating the fluorescence increase in test compound-treated samples relative to DMSO-treated controls, and enzyme inhibition (IC50) values are determined from those curves.

Structures are written as SMILES.

The term IC50 denotes the point on the concentration scale where inhibition reaches its midpoint. High values mean lower potency, low ones higher potency.

As for `Cn1cccc1C(=O)N1CCc2cc(C(=O)NO)ccc2C1` [Compound 1, N-hydroxy-2-[(1-methyl-1H-pyrrol-2-yl)carbonyl]-1,2,3,4-tetrahydroisoquinoline-6-carboxamide], the IC50 is < 50 nM. Under `CC(C)(C)C(=O)N1CCc2cc(C(=O)NO)ccc2C1` [Compound 2, 2-(2,2-dimethylpropanoyl)-N-hydroxy-1,2,3,4-tetrahydroisoquinoline-6-carboxamide] stands 50 to 100 nM; under `O=C(NO)c1ccc2c(c1)CCN(C(=O)Cc1ccc(C(F)(F)F)cc1)C2` [Compound 3, N-hydroxy-2-{[4-(trifluoromethyl)phenyl]acetyl}-1,2,3,4-tetrahydroisoquinoline-6-carboxamide], 50 to 100 nM; under `O=C(NO)c1ccc2c(c1)CCN(C(=O)C1(c3ccc(Cl)cc3)CCC1)C2` [Compound 4, 2-{[1-(4-chlorophenyl)cyclobutyl]carbonyl}-N-hydroxy-1,2,3,4-tetrahydroisoquinoline-6-carboxamide], < 50 nM. As to `O=C(NO)c1ccc2c(c1)CCN(C(=O)C1CCCCC1)C2` [Compound 5, 2-(cyclohexylcarbonyl)-N-hydroxy-1,2,3,4-tetrahydroisoquinoline-6-carboxamide], the IC50 lay in the range of 50 to 100 nM. `Cc1nc(CC(=O)N2CCc3cc(C(=O)NO)ccc3C2)cs1` [Compound 6, N-hydroxy-2-[(2-methyl-1,3-thiazol-4-yl)acetyl]-1,2,3,4-tetrahydroisoquinoline-6-carboxamide] showed an IC50 of 100 to 500 nM. Under `O=C(NO)c1ccc2c(c1)CCN(C(=O)c1cnn(-c3ccccc3)c1)C2` [Compound 7, N-hydroxy-2-[(1-phenyl-1H-pyrazol-4-yl)carbonyl]-1,2,3,4-tetrahydroisoquinoline-6-carboxamide] stands < 50 nM; under `O=C(NO)c1ccc2c(c1)CCN(C(=O)c1cc3ccccc3[nH]1)C2` [Compound 8, N-hydroxy-2-(1H-indol-2-ylcarbonyl)-1,2,3,4-tetrahydroisoquinoline-6-carboxamide], < 50 nM; under `CC(C)CC(=O)N1CCc2cc(C(=O)NO)ccc2C1` [Compound 9, N-hydroxy-2-(3-methylbutanoyl)-1,2,3,4-tetrahydroisoquinoline-6-carboxamide], 50 to 100 nM. Molecule `Cc1ccc(C(C)C(=O)N2CCc3cc(C(=O)NO)ccc3C2)cc1` (stereo not shown) [Compound 10, N-hydroxy-2-[2-(4-methylphenyl)propanoyl]-1,2,3,4-tetrahydroisoquinoline-6-carboxamide] returned an IC50 of 50 to 100 nM. Molecule `O=C(NO)c1ccc2c(c1)CCN(C(=O)c1cccc3ccccc13)C2` [Compound 12, N-hydroxy-2-(1-naphthoyl)-1,2,3,4-tetrahydroisoquinoline-6-carboxamide] showed an IC50 of 50 to 100 nM. As for `O=C(NO)c1ccc2c(c1)CCN(C(=O)CCn1ccc3ccccc31)C2` [Compound 13, N-hydroxy-2-[3-(1H-indol-1-yl)propanoyl]-1,2,3,4-tetrahydroisoquinoline-6-carboxamide], the IC50 was > 500 nM. `O=C(NO)c1ccc2c(c1)CCN(C(=O)c1ccc(-n3cccc3)cc1)C2` [Compound 14, N-hydroxy-2-[4-(1H-pyrrol-1-yl)benzoyl]-1,2,3,4-tetrahydroisoquinoline-6-carboxamide] gave an IC50 of 50 to 100 nM. In turn, `O=C(NO)c1ccc2c(c1)CCN(C(=O)Cc1ccccc1)C2` [Compound 15, N-hydroxy-2-(phenylacetyl)-1,2,3,4-tetrahydroisoquinoline-6-carboxamide] came in with an IC50 of 50 to 100 nM.

Regarding `Cc1noc(C)c1CC(=O)N1CCc2cc(C(=O)NO)ccc2C1` [Compound 16, 2-[(3,5-dimethylisoxazol-4-yl)acetyl]-N-hydroxy-1,2,3,4-tetrahydroisoquinoline-6-carboxamide], the IC50 was 50 to 100 nM. `CC(=O)N[C@H](CC(C)C)C(=O)N1CCc2cc(C(=O)NO)ccc2C1` [Compound 17, 2-[(2R)-2-(acetylamino)-4-methylpentanoyl]-N-hydroxy-1,2,3,4-tetrahydroisoquinoline-6-carboxamide] came in with an IC50 of 100 to 500 nM. For `Cc1c(C(=O)N2CCc3cc(C(=O)NO)ccc3C2)cnn1-c1ccccc1` [Compound 18, N-hydroxy-2-[(5-methyl-1-phenyl-1H-pyrazol-4-yl)carbonyl]-1,2,3,4-tetrahydroisoquinoline-6-carboxamide], the IC50 is 50 to 100 nM. In the case of `C=CC(C)C(=O)N1CCc2cc(C(=O)NO)ccc2C1` (stereo not shown) [Compound 19, N-hydroxy-2-(2-methylbut-3-enoyl)-1,2,3,4-tetrahydroisoquinoline-6-carboxamide], the IC50 lay within 50 to 100 nM. Under `CC(N)(Cc1ccccc1)C(=O)N1CCc2cc(C(=O)NO)ccc2C1` (stereo not shown) [Compound 20, 2-(2-amino-2-methyl-3-phenylpropanoyl)-N-hydroxy-1,2,3,4-tetrahydroisoquinoline-6-carboxamide] stands 100 to 500 nM. `O=C(NO)c1ccc2c(c1)CCN(C(=O)COc1ccccc1)C2` [Compound 21, N-hydroxy-2-(phenoxyacetyl)-1,2,3,4-tetrahydroisoquinoline-6-carboxamide] yielded a concentration for half-maximal inhibition (IC50) of 50 to 100 nM. Under `O=C(NO)c1ccc2c(c1)CCN(C(=O)C1CCCCCC1)C2` [Compound 22, 2-(cycloheptylcarbonyl)-N-hydroxy-1,2,3,4-tetrahydroisoquinoline-6-carboxamide] stands 50 to 100 nM; under `CC1(C(=O)N2CCc3cc(C(=O)NO)ccc3C2)CC1` [Compound 23, N-hydroxy-2-(1-methylcyclopropanecarbonyl)-1,2,3,4-tetrahydroisoquinoline-6-carboxamide], 50 to 100 nM.

With `O=C(NO)c1ccc2c(c1)CCN(C(=O)C1CCOC1)C2` (stereo not shown) [Compound 24, N-hydroxy-2-(tetrahydrofuran-3-ylcarbonyl)-1,2,3,4-tetrahydroisoquinoline-6-carboxamide], the IC50 lay within 100 to 500 nM. In the case of `O=C(NO)c1ccc2c(c1)CCN(C(=O)CC1CCCC1)C2` [Compound 25, 2-(cyclopentylacetyl)-N-hydroxy-1,2,3,4-tetrahydroisoquinoline-6-carboxamide], the IC50 was < 50 nM. As for `O=C(NO)c1ccc2c(c1)CCN(C(=O)C1CC=CCC1)C2` (stereo not shown) [Compound 26, 2-(cyclohex-3-en-1-ylcarbonyl)-N-hydroxy-1,2,3,4-tetrahydroisoquinoline-6-carboxamide], the figure is 100 to 500 nM; as for `CC(C)C(C(=O)N1CCc2cc(C(=O)NO)ccc2C1)c1ccccc1` (stereo not shown) [Compound 27, N-hydroxy-2-(3-methyl-2-phenylbutanoyl)-1,2,3,4-tetrahydroisoquinoline-6-carboxamide], < 50 nM; as for `CC1(C(=O)N2CCc3cc(C(=O)NO)ccc3C2)CCCCC1` [Compound 28, N-hydroxy-2-[(1-methylcyclohexyl)carbonyl]-1,2,3,4-tetrahydroisoquinoline-6-carboxamide], 100 to 500 nM. `C[C@H](C(=O)N1CCc2cc(C(=O)NO)ccc2C1)c1ccccc1` [Compound 29, N-hydroxy-2-[(2S)-2-phenylpropanoyl]-1,2,3,4-tetrahydroisoquinoline-6-carboxamide] displayed an IC50 of 50 to 100 nM. With `O=C(NO)c1ccc2c(c1)CCN(C(=O)Cc1ccc(-c3ccccc3)cc1)C2` [Compound 30, 2-(biphenyl-4-ylacetyl)-N-hydroxy-1,2,3,4-tetrahydroisoquinoline-6-carboxamide], the IC50 is < 50 nM. Turning to `Cc1cc(C)n(CC(=O)N2CCc3cc(C(=O)NO)ccc3C2)n1` [Compound 31, 2-[(3,5-dimethyl-1H-pyrazol-1-yl)acetyl]-N-hydroxy-1,2,3,4-tetrahydroisoquinoline-6-carboxamide], the IC50 lay in the range of 100 to 500 nM. Take `O=C(NO)c1ccc2c(c1)CCN(C(=O)C1CCCC1)C2` [Compound 32, 2-(cyclopentylcarbonyl)-N-hydroxy-1,2,3,4-tetrahydroisoquinoline-6-carboxamide]: the IC50 is < 50 nM.
